In the supplement of paper PMC4862054:

Each compound was assayed on HDQ-P1 (assay: normalised response (% of control), CellTiter-Glo; higher = more viable cells (100 = DMSO, 0 = benzethonium chloride kill control)). Details: incubation time: 72 h.
Method: (§1)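 DSRT, 72 h incubation, CellTox Green / CellTiter-Glo readout. Signal is normalised to DMSO and benzethonium chloride controls. Value is the normalised response at dose 3.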

| Compound | normalised response [%] |
| --- | --- |
| CN1CCN(CCOc2cc(OC3CCOCC3)c3c(Nc4c(Cl)ccc5c4OCO5)ncnc3c2)CC1 [Saracatinib] (100 nM) | 93.5 |
| O=C(O)CCCc1ccc(N(CCCl)CCCl)cc1 [Chlorambucil] (100 nM) | 103 |
| c1ccc([C@H]2CN3CCSC3=N2)cc1 [Levamisole] (100 nM) | 100 |
| Cn1cncc1[C@@](N)(c1ccc(Cl)cc1)c1ccc2c(c1)c(-c1cccc(Cl)c1)cc(=O)n2C [Tipifarnib] (100 nM) | 81.2 |
| CC(C)(C#N)c1cc(Cn2cncn2)cc(C(C)(C)C#N)c1 [Anastrozole] (100 nM) | 102 |
| CN(C)CCN1C(=O)c2cccc3cc(N)cc(c23)C1=O [Amonafide] (100 nM) | 102 |
| CNNCc1ccc(C(=O)NC(C)C)cc1 [Procarbazine] (100 nM) | 105 |
| Nc1ncnc2c1c(COc1cccc(Cl)c1)nn2C1CCOCC1 (100 nM) | 101 |

Each compound was assayed on Hs578T in the same assay as above. Details: incubation time: 72 h.
Method: as §1

| Compound | normalised response [%] |
| --- | --- |
| Nc1nc(OCc2cc(Br)cs2)c2[nH]cnc2n1 [Lomeguatrib] (100 nM) | 99 |
| CN1CCN(CCOc2cc(OC3CCOCC3)c3c(Nc4c(Cl)ccc5c4OCO5)ncnc3c2)CC1 [Saracatinib] (100 nM) | 104 |
| O=C(O)CCCc1ccc(N(CCCl)CCCl)cc1 [Chlorambucil] (100 nM) | 102 |
| c1ccc([C@H]2CN3CCSC3=N2)cc1 [Levamisole] (100 nM) | 110 |
| Cn1cncc1[C@@](N)(c1ccc(Cl)cc1)c1ccc2c(c1)c(-c1cccc(Cl)c1)cc(=O)n2C [Tipifarnib] (100 nM) | 83.1 |
| CC(C)(C#N)c1cc(Cn2cncn2)cc(C(C)(C)C#N)c1 [Anastrozole] (100 nM) | 113 |
| CN(C)CCN1C(=O)c2cccc3cc(N)cc(c23)C1=O [Amonafide] (100 nM) | 100 |
| CNNCc1ccc(C(=O)NC(C)C)cc1 [Procarbazine] (100 nM) | 104 |
| Nc1ncnc2c1c(COc1cccc(Cl)c1)nn2C1CCOCC1 (100 nM) | 78.4 |

The compounds below were run on MCF-10A in the same assay as above. Details: incubation time: 72 h.
Method: as §1

| Compound | normalised response [%] |
| --- | --- |
| Nc1nc(OCc2cc(Br)cs2)c2[nH]cnc2n1 [Lomeguatrib] (100 nM) | 106 |
| CN1CCN(CCOc2cc(OC3CCOCC3)c3c(Nc4c(Cl)ccc5c4OCO5)ncnc3c2)CC1 [Saracatinib] (100 nM) | 78.2 |
| O=C(O)CCCc1ccc(N(CCCl)CCCl)cc1 [Chlorambucil] (100 nM) | 99.9 |
| c1ccc([C@H]2CN3CCSC3=N2)cc1 [Levamisole] (100 nM) | 110 |
| Cn1cncc1[C@@](N)(c1ccc(Cl)cc1)c1ccc2c(c1)c(-c1cccc(Cl)c1)cc(=O)n2C [Tipifarnib] (100 nM) | 83.9 |
| CC(C)(C#N)c1cc(Cn2cncn2)cc(C(C)(C)C#N)c1 [Anastrozole] (100 nM) | 112 |
| CN(C)CCN1C(=O)c2cccc3cc(N)cc(c23)C1=O [Amonafide] (100 nM) | 99.5 |
| CNNCc1ccc(C(=O)NC(C)C)cc1 [Procarbazine] (100 nM) | 109 |
| Nc1ncnc2c1c(COc1cccc(Cl)c1)nn2C1CCOCC1 (100 nM) | 110 |

These compounds were tested on MDA-MB-231 in the same assay as above. Details: incubation time: 72 h.
Method: as §1

| Compound | normalised response [%] |
| --- | --- |
| Nc1nc(OCc2cc(Br)cs2)c2[nH]cnc2n1 [Lomeguatrib] (100 nM) | 98.2 |
| CN1CCN(CCOc2cc(OC3CCOCC3)c3c(Nc4c(Cl)ccc5c4OCO5)ncnc3c2)CC1 [Saracatinib] (100 nM) | 78.7 |
| O=C(O)CCCc1ccc(N(CCCl)CCCl)cc1 [Chlorambucil] (100 nM) | 106 |
| c1ccc([C@H]2CN3CCSC3=N2)cc1 [Levamisole] (100 nM) | 103 |
| Cn1cncc1[C@@](N)(c1ccc(Cl)cc1)c1ccc2c(c1)c(-c1cccc(Cl)c1)cc(=O)n2C [Tipifarnib] (100 nM) | 92.7 |
| CC(C)(C#N)c1cc(Cn2cncn2)cc(C(C)(C)C#N)c1 [Anastrozole] (100 nM) | 97.4 |
| CN(C)CCN1C(=O)c2cccc3cc(N)cc(c23)C1=O [Amonafide] (100 nM) | 111 |
| CNNCc1ccc(C(=O)NC(C)C)cc1 [Procarbazine] (100 nM) | 105 |
| Nc1ncnc2c1c(COc1cccc(Cl)c1)nn2C1CCOCC1 (100 nM) | 108 |

What follows are compounds tested on MDA-MB-436 in the same assay as above. Details: incubation time: 72 h.
Method: as §1

| Compound | normalised response [%] |
| --- | --- |
| Nc1nc(OCc2cc(Br)cs2)c2[nH]cnc2n1 [Lomeguatrib] (100 nM) | 102 |
| CN1CCN(CCOc2cc(OC3CCOCC3)c3c(Nc4c(Cl)ccc5c4OCO5)ncnc3c2)CC1 [Saracatinib] (100 nM) | 95.1 |
| O=C(O)CCCc1ccc(N(CCCl)CCCl)cc1 [Chlorambucil] (100 nM) | 99.3 |
| c1ccc([C@H]2CN3CCSC3=N2)cc1 [Levamisole] (100 nM) | 107 |
| Cn1cncc1[C@@](N)(c1ccc(Cl)cc1)c1ccc2c(c1)c(-c1cccc(Cl)c1)cc(=O)n2C [Tipifarnib] (100 nM) | 71.6 |
| CC(C)(C#N)c1cc(Cn2cncn2)cc(C(C)(C)C#N)c1 [Anastrozole] (100 nM) | 104 |
| CN(C)CCN1C(=O)c2cccc3cc(N)cc(c23)C1=O [Amonafide] (100 nM) | 99.5 |
| CNNCc1ccc(C(=O)NC(C)C)cc1 [Procarbazine] (100 nM) | 95.4 |
| Nc1ncnc2c1c(COc1cccc(Cl)c1)nn2C1CCOCC1 (100 nM) | 104 |

What follows are compounds tested on MDA-MB-453 in the same assay as above. Details: incubation time: 72 h.
Method: as §1

| Compound | normalised response [%] |
| --- | --- |
| Nc1nc(OCc2cc(Br)cs2)c2[nH]cnc2n1 [Lomeguatrib] (100 nM) | 95.2 |
| CN1CCN(CCOc2cc(OC3CCOCC3)c3c(Nc4c(Cl)ccc5c4OCO5)ncnc3c2)CC1 [Saracatinib] (100 nM) | 106 |
| O=C(O)CCCc1ccc(N(CCCl)CCCl)cc1 [Chlorambucil] (100 nM) | 104 |
| c1ccc([C@H]2CN3CCSC3=N2)cc1 [Levamisole] (100 nM) | 110 |
| Cn1cncc1[C@@](N)(c1ccc(Cl)cc1)c1ccc2c(c1)c(-c1cccc(Cl)c1)cc(=O)n2C [Tipifarnib] (100 nM) | 75.7 |
| CC(C)(C#N)c1cc(Cn2cncn2)cc(C(C)(C)C#N)c1 [Anastrozole] (100 nM) | 105 |
| CN(C)CCN1C(=O)c2cccc3cc(N)cc(c23)C1=O [Amonafide] (100 nM) | 89.3 |
| CNNCc1ccc(C(=O)NC(C)C)cc1 [Procarbazine] (100 nM) | 104 |
| Nc1ncnc2c1c(COc1cccc(Cl)c1)nn2C1CCOCC1 (100 nM) | 93.5 |

What follows are compounds tested on MDA-MB-468 in the same assay as above. Details: incubation time: 72 h.
Method: as §1

| Compound | normalised response [%] |
| --- | --- |
| Nc1nc(OCc2cc(Br)cs2)c2[nH]cnc2n1 [Lomeguatrib] (100 nM) | 95.4 |
| CN1CCN(CCOc2cc(OC3CCOCC3)c3c(Nc4c(Cl)ccc5c4OCO5)ncnc3c2)CC1 [Saracatinib] (100 nM) | 95.5 |
| O=C(O)CCCc1ccc(N(CCCl)CCCl)cc1 [Chlorambucil] (100 nM) | 106 |
| c1ccc([C@H]2CN3CCSC3=N2)cc1 [Levamisole] (100 nM) | 113 |
| Cn1cncc1[C@@](N)(c1ccc(Cl)cc1)c1ccc2c(c1)c(-c1cccc(Cl)c1)cc(=O)n2C [Tipifarnib] (100 nM) | 74.9 |
| CC(C)(C#N)c1cc(Cn2cncn2)cc(C(C)(C)C#N)c1 [Anastrozole] (100 nM) | 91.3 |
| CN(C)CCN1C(=O)c2cccc3cc(N)cc(c23)C1=O [Amonafide] (100 nM) | 96.8 |
| CNNCc1ccc(C(=O)NC(C)C)cc1 [Procarbazine] (100 nM) | 99.4 |
| Nc1ncnc2c1c(COc1cccc(Cl)c1)nn2C1CCOCC1 (100 nM) | 102 |

What follows are compounds tested on MFM-223 in the same assay as above. Details: incubation time: 72 h.
Method: as §1

| Compound | normalised response [%] |
| --- | --- |
| Nc1nc(OCc2cc(Br)cs2)c2[nH]cnc2n1 [Lomeguatrib] (100 nM) | 100 |
| CN1CCN(CCOc2cc(OC3CCOCC3)c3c(Nc4c(Cl)ccc5c4OCO5)ncnc3c2)CC1 [Saracatinib] (100 nM) | 94.6 |
| O=C(O)CCCc1ccc(N(CCCl)CCCl)cc1 [Chlorambucil] (100 nM) | 98.6 |
| c1ccc([C@H]2CN3CCSC3=N2)cc1 [Levamisole] (100 nM) | 113 |
| Cn1cncc1[C@@](N)(c1ccc(Cl)cc1)c1ccc2c(c1)c(-c1cccc(Cl)c1)cc(=O)n2C [Tipifarnib] (100 nM) | 82.6 |
| CC(C)(C#N)c1cc(Cn2cncn2)cc(C(C)(C)C#N)c1 [Anastrozole] (100 nM) | 104 |
| CN(C)CCN1C(=O)c2cccc3cc(N)cc(c23)C1=O [Amonafide] (100 nM) | 101 |
| CNNCc1ccc(C(=O)NC(C)C)cc1 [Procarbazine] (100 nM) | 103 |
| Nc1ncnc2c1c(COc1cccc(Cl)c1)nn2C1CCOCC1 (100 nM) | 105 |

These compounds were tested on SK-BR-3 in the same assay as above. Details: incubation time: 72 h.
Method: as §1

| Compound | normalised response [%] |
| --- | --- |
| Nc1nc(OCc2cc(Br)cs2)c2[nH]cnc2n1 [Lomeguatrib] (100 nM) | 106 |
| CN1CCN(CCOc2cc(OC3CCOCC3)c3c(Nc4c(Cl)ccc5c4OCO5)ncnc3c2)CC1 [Saracatinib] (100 nM) | 109 |
| O=C(O)CCCc1ccc(N(CCCl)CCCl)cc1 [Chlorambucil] (100 nM) | 106 |
| c1ccc([C@H]2CN3CCSC3=N2)cc1 [Levamisole] (100 nM) | 108 |
| Cn1cncc1[C@@](N)(c1ccc(Cl)cc1)c1ccc2c(c1)c(-c1cccc(Cl)c1)cc(=O)n2C [Tipifarnib] (100 nM) | 69.3 |
| CC(C)(C#N)c1cc(Cn2cncn2)cc(C(C)(C)C#N)c1 [Anastrozole] (100 nM) | 106 |
| CN(C)CCN1C(=O)c2cccc3cc(N)cc(c23)C1=O [Amonafide] (100 nM) | 95.3 |
| CNNCc1ccc(C(=O)NC(C)C)cc1 [Procarbazine] (100 nM) | 105 |
| Nc1ncnc2c1c(COc1cccc(Cl)c1)nn2C1CCOCC1 (100 nM) | 109 |
